The source of these data is article PMC11926788, “Effect of SSR504734, a Selective Glycine Transporter Type 1 Inhibitor, on Seizure Thresholds, Neurotransmitter Levels, and Inflammatory Markers in Mice” (ACS Chemical Neuroscience, 2025).

Series [1] relates to tonic hindlimb extension in the MEST test in rats. The note with it: cited from earlier work.
Series [2] has as its system tonic hindlimb extension in the MEST test in mice. The note with it: cited from earlier work; for effect on threshold for tonic hindlimb extension: MEST test in mice.
Series [3] is described as follows: Chimney test (motor coordination). The note with it: 150 mg/kg i.p. It is filed as in vivo, mice. The procedure:
The impact of SSR504734 on motor coordination in mice was evaluated by using the chimney test. Each animal was individually placed inside a transparent Plexiglas tube with an inner diameter of 3 cm and a length of 30 cm. The tube was horizontally positioned on a table and shifted vertically once the mouse reached the opposite end. Within a 60 s time frame, the mouse was required to climb backward to escape from the tube. In order to minimize the number of animals used, a chimney test was carried out shortly before seizure tests.
(§1) Table S2. Time-course effect of SSR5504734 on neuromuscular strength and motor […]
(§2) Group Neuromuscular strength Impairment of motor
(§3) SSR504734 was dissolved in normal saline and injected i.p. at the dose of 30 mg/kg. Control animals received saline. The data are expressed as the mean ± SD of grip strengths measured in millinewtons per gram of mouse body weight (mN/g) from the grip-strength test assessing […]
(§4) coordination impairment in the chimney test. Each experimental group consisted of 12 animals. The grip-strength test results were analyzed using a one-way ANOVA with Dunnett’s post hoc test, while the data from the chimney test were statistically evaluated using Fisher’s exact probability test. *p<0.05 vs. control group.
(§5) Table S3. Effect of acute and 14-day treatment with SSR504734 on neuromuscular strength and motor coordination in mice
(§6) In acute studies, SSR504734 and sodium valproate (VPA; positive control) were injected i.p.
(§7) 60 and 15 min before the test, respectively. In subchronic studies, SSR504734 and VPA were injected i.p. every 24 h for 14 days. The last administration was made 60 and 15 min before the tests, respectively. Control animals received saline. Each experimental group consisted of 12 animals. The grip-strength test results were analyzed using a one-way ANOVA with […]
(§8) Fisher’s exact probability test.

For series [4], the system named is i.v. PTZ-induced seizures in mice. The experiment in a line: Intravenous (i.v.) PTZ seizure threshold test. It is filed as in vivo. The note with it: VPA 150 mg/kg. The procedure: Mice were individually placed in a plastic restrainer (12 cm long, 3 cm inner diameter), and the lateral vein of each mouse was catheterized using a 27-gauge needle (Sterican, B. Braun Melsungen, Melsungen, Germany). The needle was attached by polyethylene tubing (PE20RW, Plastics One Inc., Roanoke, VA, USA) to a 10 mL plastic syringe containing 1% solution of PTZ in saline (Sigma-Aldrich, St. Louis, MO, USA) and mounted to a syringe pump (model Physio 22, Hugo Sachs Elektronik, Harvard Apparatus GmbH, March-Hugstetten, Germany). Piece of adhesive tape was used to secure the needle. The proper placement of the needle in the vein was verified by the appearance of blood in the tubing. During the test, mice were placed in a transparent box for observation. The PTZ solution was administered to freely moving mice at a constant rate of 0.2 mL/min. The time intervals from the initiation of PTZ infusion to the occurrence of the three following end points, i.e., (1) the first myoclonic twitch, (2) generalized clonic seizure with loss of righting reflex, and (3) forelimb tonus, were recorded. The PTZ infusion was terminated when tonic seizures, which were often fatal for the mice, began. All mice that survived were euthanized immediately. The thresholds were calculated separately for each end point using the following formula: threshold dose of PTZ (mg/kg) = infusion duration (s) × infusion rate (mL/s) × PTZ concentration (mg/mL)/body weight (kg). Seizure threshold was expressed as the amount of PTZ (mg/kg) ± SD (standard deviation) needed to produce the first observable sign of each end point. Each group consisted of 12–15 animals.

Series [5] in a line: Grip strength test (neuromuscular strength). The note with it: 150 mg/kg i.p. It is filed as in vivo, mice. The procedure:
The effect of SSR504734 on neuromuscular strength was determined using the grip-strength apparatus (BioSeb, Chaville, France). The apparatus consists of a steel wire grid of 8 × 8 cm, connected to an isometric force transducer. Each mouse was held by the tail, allowing it to grasp the grid with its forepaws only and steadily pulled back until it released the grid. The maximum grip strength value (in newtons; N) was measured three times for each animal. The mean force was normalized to body weight and expressed in mN/g ± SD for each experimental group. In order to minimize the number of animals used, a grip-strength test was carried out shortly before seizure tests.
as §1, §2, §3, §4, §5, §6, §7, §8

The subject of series [6] is tonic hindlimb extension in the MEST test in mice. The experiment in a line: Maximal electroshock seizure threshold (MEST) test. The note with it: 150 mg/kg i.p. The format is in vivo. The procedure:
A sinusoidal current alternation was delivered via saline-soaked transcorneal electrodes. Before stimulation, an ocular anesthetic (1% tetracaine hydrochloride solution obtained from Sigma-Aldrich, St. Louis, MO, USA) was administered to each eye of the mice. During stimulation, the mice were manually immobilized in a hand for 3–5 s and immediately relocated to a transparent box for behavioral observation after the stimulation. Hindlimb tonic extension was taken as an end point. Two experimental approaches were employed: (1) the maximal electroshock seizure threshold (MEST) test at varied current intensities and (2) the maximal electroshock (MES) test at a fixed current intensity.
In the MEST test, seizure thresholds were determined using the “up-and-down” method described by Kimball et al.[28] […] Each mouse was stimulated only once.
(In the maximal electroshock model the usual endpoint is tonic extension of the hind limbs.)

Series [7] relates to 6 Hz-induced psychomotor seizures in mice. The experiment in a line: 6 Hz-induced psychomotor seizure threshold test. The format is in vivo. As to conditions: SSR504734 any of the doses tested, VPA 150 mg/kg. How it is done:
Psychomotor seizures were induced through the application of rectangular pulses (0.2 ms width; 6 pulses per second) for 3 s using a Grass model CCU1 constant current unit coupled to a Grass S48 stimulator (Grass Technologies, Warwick, RI, USA). Stimuli were delivered via saline-soaked transcorneal electrodes. An ocular anesthetic (1% tetracaine hydrochloride) was administered on the animal’s corneas. Mice were restrained manually during stimulation and placed in transparent box immediately for behavioral observation. 6 Hz-induced seizures were characterized by head-nodding, chewing, eye-blinking, twitching of the vibrissae, rearing, stunned posture, forelimb clonus, and Straub tail. The absence of the described features or the return to normal exploratory behavior within 20 s poststimulation was considered as the absence of seizures. The 6 Hz seizure threshold test were conducted on groups of 20 animals stimulated with different current intensities by using the “up-and-down” method described by Kimball et al.[28]
The seizure threshold was quantified as the median current strength (CS50 value with confidence limits for 95% probability), predicting the induction of psychomotor seizures in 50% of the tested animals.

Series [8] can be described thus: PAMPA (Gentest Precoated PAMPA Plate System). It is filed as in vitro ADME. The note with it: ± SD. How it is done:
(§9) A series of in vitro ADME-Tox tests were performed for SSR504734 in order to estimate its drugability. The ADME-Tox parameters including permeability, plasma protein binding, metabolic stability, neurotoxicity, and hepatotoxicity were carried out as described previously.[31],[32] The ability of SSR504734 to penetrate through the biological membrane by passive diffusion was estimated by the Gentest Precoated PAMPA Plate System (Corning, Tewksbury, MA) and expressed as the permeability coefficient (Pe). The protein binding analysis was performed by using the commercial TRANSIL^XL PPB test, which mimics in vitro physiological plasma conditions where human serum albumin (HAS) and alpha-1-acid glycoprotein AGP are present in a 24:1 ratio. The human metabolism of SSR504734 was studied using human liver microsomes (HLMs) provided by Sigma-Aldrich. The hepatotoxicity and neurotoxicity were estimated in cellular models with the use of hepatoma HepG2 and neuroblastoma SH-SY5Y cell lines to perform the preliminary safety tests. The cells were incubated with SSR504734 at the concentration range of 0.1–100 μM. 1 μM cytostatic drug doxorubicin (DX) was used as the reference.

For the next series, the system named is hepatoma HepG2 cells. The experiment in a line: Hepatotoxicity, HepG2 cell viability. The format is cell-based. How it is done: as §9
(§10) Figure 8 Effect of cytostatic drug doxorubicin (DX) and SSR504734 on (A) hepatoma HepG2 and (B) neuroblastoma SH-SY5Y cell lines viability after 72 h of incubation at 37 °C, 5% CO2. Data are expressed as means ± SD. Statistical analysis: ****p < 0.0001 vs negative control −1% DMSO in growth media (one-way ANOVA, followed by Dunnett’s post hoc test).
(§11) Figure S8. The effect of cytostatic drug doxorubicin and SSR504734 on (A) hepatoma
(§12) HepG2 and (B) neuroblastoma SH-SY5Y cell line viability after 72 h of incubation at 37 °C,
(§13) 5% CO2. The IC50 values were calculated by GraphPad Prism 8.0.
(§14) (1 picture or pasted object on this page, not shown here)

In series [9] the test system is neuroblastoma SH-SY5Y cells. The experiment in a line: Neurotoxicity, SH-SY5Y cell viability. It is filed as cell-based. As to conditions: Homo sapiens; SH-SY5Y, 72 h of incubation. How it is done:
as §9, §10, §11, §12, §13, §14

The target in the next series is T1, rat GlyT1 (Rattus norvegicus, UniProt P28572).
T1 construct: tissue Eurofins Panlabs Discovery Services Taiwan, Ltd. (ran the assay); host or cells: Wistar rat brain cortex
T1 sequence (P28572 1-638): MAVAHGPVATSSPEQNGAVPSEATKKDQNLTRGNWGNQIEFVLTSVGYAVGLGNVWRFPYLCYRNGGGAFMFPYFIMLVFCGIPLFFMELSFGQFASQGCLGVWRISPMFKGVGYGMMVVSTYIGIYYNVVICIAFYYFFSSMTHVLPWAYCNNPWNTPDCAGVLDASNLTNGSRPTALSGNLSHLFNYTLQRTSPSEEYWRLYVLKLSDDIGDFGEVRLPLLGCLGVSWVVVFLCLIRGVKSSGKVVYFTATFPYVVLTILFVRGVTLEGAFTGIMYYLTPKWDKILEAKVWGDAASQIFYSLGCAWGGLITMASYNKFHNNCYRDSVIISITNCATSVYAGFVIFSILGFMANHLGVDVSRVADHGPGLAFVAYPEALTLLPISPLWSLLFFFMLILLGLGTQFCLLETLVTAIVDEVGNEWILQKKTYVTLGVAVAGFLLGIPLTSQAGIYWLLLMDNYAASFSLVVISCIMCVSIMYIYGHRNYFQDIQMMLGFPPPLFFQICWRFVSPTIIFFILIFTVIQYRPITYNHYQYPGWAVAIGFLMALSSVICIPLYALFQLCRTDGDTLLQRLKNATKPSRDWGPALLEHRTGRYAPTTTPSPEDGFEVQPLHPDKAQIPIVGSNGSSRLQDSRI
The experiment in a line: GlyT1 radioligand binding ([3H]glycine, rat brain cortex, Eurofins Panlabs). As to conditions: rat brain cortex; read-out: IC50 (reference GlyT1 inhibitor in this testing system).

The test system of series [10] is i.v. PTZ-induced seizures. As to conditions: cited from earlier work.
The next series has as its system GlyT1. As to conditions: read-out: IC50 (competitive inhibitor of GlyT1); cited from earlier work.

The IC50 is the concentration at which inhibition is half-maximal.

Read-outs that look alike come from different tables or passages of the source.

`Cc1cccc(C)c1C(=O)N[C@@H](c1ccccc1)C1(N(C)C)CCCC1` [GSK931145]: in series [1], the “effect on threshold for tonic hindlimb extension” value was “strong, dose-dependent increase”.

`CN(CCOc1ccc(-c2ccc3c(c2)OCO3)cc1C(C)(C)C)CC(=O)O` [LY2365109]: the “effect on seizure thresholds” value in series [2] (MEST- and PTZ-induced seizure tests, mice) was “increased seizure thresholds”.

For `CN(CCC(Oc1ccc(-c2ccccc2)cc1)c1ccc(F)cc1)CC(=O)O` (stereo not drawn) [NFPS], the “effect on threshold for tonic hindlimb extension” value in series [1] is “strong, dose-dependent increase”.

As for `COc1ccc2c(c1)CC[C@H](CN(C)CC(=O)O)[C@@H]2c1ccccc1` [Org25935], the “effect on threshold for tonic hindlimb extension” value in [1] is reported as “strong, dose-dependent increase”.

Turning to `CCCC(CCC)C(=O)O` [VPA, sodium valproate], the “Impairment of motor coordination” value in series [3] (14-day treatment) is 0%; in [3] (acute treatment), 8.33%. Further, the “effect on thresholds for myoclonic twitch, generalized clonus and forelimb tonus” value in [4] (14-day treatment i.p.) and in series [4] (single administration i.p.) was “significantly increased the thresholds” throughout. The Neuromuscular strength in [5] (14-day treatment) is 22.27 ± 4.84 mN/kg; in series [5] (acute treatment), 29.73 ± 4.60 mN/kg. The “fold increase of seizure threshold” value in series [6] (14-day administration) stood at 1.7 fold; in series [6] (single administration, 15 min before test) it was 1.8 fold. Besides, the “effect on current intensity necessary to induce psychomotor seizures” value in series [7] (14-day administration i.p.) and in series [7] (single administration i.p.) was “marked increase” in each case.

`Cn1c(=O)c2c(ncn2C)n(C)c1=O` [caffeine]: the Papp in [8] (PAMPA, read-out: PAMPA Pe) was found to be 7.77 ± 2.3 ×10⁻⁶ cm/s. For the same molecule, the “PAMPA Pe” value in [8] is recorded as 7.77 10^–6 cm/s.

Take `COc1cccc2c1C(=O)c1c(O)c3c(c(O)c1C2=O)C[C@@](O)(C(=O)CO)C[C@@H]3O[C@H]1C[C@H](N)[C@H](O)[C@H](C)O1` [doxorubicin]: the “toxicity to HepG2 cells” value in the series on hepatoma HepG2 cells (1 μM, 72 h) is recorded as “highly toxic”. For the same molecule, the 50% inhibitory concentration (IC50) with hepatoma HepG2 cells (Homo sapiens, HepG2, 72 h of incubation) worked out at 1.91 µM; in series [9], 0.3 µM.

On to `CNCC(=O)O` [sarcosine], for which the concentration for half-maximal inhibition (IC50) on rat GlyT1 was 55.8 µM; in the series on GlyT1 it was 91 µM. Besides, the “effect in the i.v. PTZ test” value in series [10] is “devoid of any effect”. The entries for the “effect on threshold for tonic hindlimb extension” value in series [2] and in series [2] (listed as Sarcosine) were “increased the threshold” and “raised the threshold”, respectively.
